In brackets after ≈: the same amount, converted by molar mass. Residues, ends and D or L forms follow the SMILES beside them.
How the values were obtained:
[1] = system: MRSA 103; assay: microbe, parasite or virus in culture; format: cell-based, Staphylococcus aureus
Description: (§1) The test strains (Gram-negative: E. coli ATCC 25922, E. coli k88, E. coli k99, E. coli 987, P. aeruginosa ATCC PAO1, Salmonella pullorum ATCC 7731, S. pullorum ATCC 7913, and S. typhimurium ATCC 14028; Gram-positive: S. aureus ATCC 29213, S. aureus ATCC 25923, S. epidermidis ATCC 12228, MRSA ATCC 43300, MRSA 544, MRSA 103, L. rhamnosus ATCC 8014, and L. rhamnosus 1.9021) were maintained at the School of Medicine in the Shenzhen Campus of Sun Yat-sen University. Mouse RBCs were extracted from a specific pathogen-free (SPF) grade mouse.
(§2) The peptides' antimicrobial effectiveness was evaluated using a method derived from a previous publication ([59]) and modified for use in this study. Single colonies were seeded and cultured in brain–heart infusion (BHI) medium at 37°C until log-phase growth after adjustment to OD600 = 0.4, which was followed by a 1000-fold dilution with phosphate-buffered saline (PBS). Then, in sterile 96-well plates, twofold serial dilutions of the peptides were added, followed by 50-µL aliquots of the bacterial cell solution. The ultimate concentrations of the antibacterial agents were 0.125–64 μM. Moreover, bacteria and PBS were added to the TSB as positive and negative controls, respectively. The plates were placed in an incubator set at 37°C for 18 hours. The trial was conducted a minimum of three times in sets of three. Successful completion of the experiment was confirmed by observing the turbidity of the positive control and clarity of the negative control culture medium. The MIC was defined as the lowest peptide concentration required to inhibit bacterial growth.

[2] = system: MRSA 544; assay: microbe, parasite or virus in culture; format: cell-based, Staphylococcus aureus
Description: as §1, §2

[3] = system: MRSA 103; assay: microbe, parasite or virus in culture; format: cell-based, Staphylococcus aureus; remark: listed apart in the source
Protocol: as §2
(§3) For MBC analysis, viable cells from all wells with no visible bacterial growth were determined on the BHI agar plates. After 24 hours of cultivation at 37°C, the MBC endpoint was defined as the minimum concentration at which 99.9% of the bacterial population was killed.

[4] = system: MRSA 544; assay: microbe, parasite or virus in culture; format: cell-based, Staphylococcus aureus; remark: listed apart in the source
Protocol: as §2, §3

[5] = system: clinically isolated MRSA; assay: microbe, parasite or virus in culture
Description: as §1
as §2, with “Successful completion of the experiment was confirmed by observing the turbidity of the positive control and clarity of the negative control culture medium.” left out

[6] = system: standard MRSA strains; format: cell-based, Staphylococcus aureus; conditions: 18 h
Description: as §1
as §2, with “Successful completion of the experiment was confirmed by observing the turbidity of the positive control and clarity of the negative control culture medium. The MIC was defined as the lowest peptide concentration required to inhibit bacterial growth.” left out

[7] = system: BALB/c mice; assay: In vivo safety assessment; design: species or system mouse; conditions: 10 mg/kg intravenously, five days after injection
Protocol: The in vivo safety assessment and antibacterial activity analysis of the peptides were performed using a murine skin infection model wherein 25 SPF-grade 6- to 8-week-old female mice (BALB/c) were randomly divided into five cages (n = 5 in each cage). The animals were housed individually in ventilated cages (IVC), at a temperature of 20°C–24°C, humidity of 50%–60%, and a 12-hour day–night cycle.
Two groups of five mice were randomly divided and intravenously injected with 100 µL PBS or a 10 mg/kg solution of AMP W5 diluted with PBS. Five days after injection, all animals were euthanized. The weight of each mouse was determined from day 0 to day 5. Blood samples were collected to analyze hepatorenal damage, and an automatic biochemical analyzer was used to measure indicators, including ALT, AST, ALP, BUN, CREA, and LDH. The livers and kidneys of the mice were stained with hematoxylin/eosin (HE) for histological analysis.

[8] = system: clinically isolated MRSA; format: cell-based, Staphylococcus aureus; conditions: 18 h
Protocol: as §2, §3

[9] = system: MRSA 544; assay: Time-kill kinetics; format: cell-based, Staphylococcus aureus; conditions: 2 × MIC, 4 × MIC and 8 × MIC, 0–7 hours
Protocol: MRSA 544 was cultured to the logarithmic phase (OD600 = 0.4) and diluted 1000-fold with PBS. […] At various periods (0, 5, 10, 15, 20, 25, 30, and 60 minutes), microbial suspensions were serially diluted (10-, 100-, and 1000-fold) with PBS, and 10 µL of the diluted suspension was plated on tryptic soy agar (TSA) medium. Single colonies of microorganisms were counted after 12-hour incubation at 37°C. The processing steps of vancomycin were the same as those of AMP W5, but with different concentrations (2 × MIC, 4 × MIC, and 8 × MIC) and periods (0, 1, 2, 3, 4, 5, 6, and 7 hours). Average values were calculated and plotted after six repetitions.

[10] = clinically isolated MRSA strains, 37°C, 18 hours
[11] = Staphylococcus aureus, MRSA, 18 h
[12] = Staphylococcus aureus, MRSA, 24 h

SMILES: N=C(N)NCCC[C@H](NC(=O)CNC(=O)[C@H](CO)NC(=O)CNC(=O)[C@H](CCCNC(=N)N)NC(=O)[C@H](CCCNC(=N)N)NC(=O)[C@H](CCCNC(=N)N)NC(=O)[C@@H](N)Cc1c[nH]c2ccccc12)C(=O)N[C@@H](CCCNC(=N)N)C(=O)N[C@@H](CCCNC(=N)N)C(=O)N[C@@H](Cc1c[nH]c2ccccc12)C(N)=O [W3] (H-WRRRGSGRRRW-NH2)
- MIC ([1]; 103, 18 h): > 64 µM
- MIC ([2]; 544, 18 h): > 64 µM
- MBC ([3]; 103, 24 h): > 64 µM
- MBC ([4]; 544, 24 h): > 64 µM

SMILES: N=C(N)NCCC[C@H](NC(=O)CNC(=O)[C@H](CO)NC(=O)CNC(=O)[C@H](CCCNC(=N)N)NC(=O)[C@H](CCCNC(=N)N)NC(=O)[C@@H](N)Cc1c[nH]c2ccccc12)C(=O)N[C@@H](CCCNC(=N)N)C(=O)N[C@@H](Cc1c[nH]c2ccccc12)C(N)=O [W2] (H-WRRGSGRRW-NH2)
- MIC ([1]; 103, 18 h): > 64 µM
- MIC ([2]; 544, 18 h): > 64 µM
- MBC ([3]; 103, 24 h): > 64 µM
- MBC ([4]; 544, 24 h): > 64 µM

SMILES: CC[C@H](C)[C@H](NC(=O)CN)C(=O)NCC(=O)N[C@@H](C)C(=O)N[C@H](C(=O)N[C@@H](CC(C)C)C(=O)N[C@@H](CCCCN)C(=O)N[C@H](C(=O)N[C@@H](CC(C)C)C(=O)N[C@H](C(=O)N[C@H](C(=O)NCC(=O)N[C@@H](CC(C)C)C(=O)N1CCC[C@H]1C(=O)N[C@@H](C)C(=O)N[C@@H](CC(C)C)C(=O)N[C@H](C(=O)N[C@@H](CO)C(=O)N[C@@H](Cc1c[nH]c2ccccc12)C(=O)N[C@H](C(=O)N[C@@H](CCCCN)C(=O)N[C@@H](CCCNC(=N)N)C(=O)N[C@@H](CCCCN)C(=O)N[C@@H](CCCNC(=N)N)C(=O)N[C@@H](CCC(N)=O)C(=O)N[C@@H](CCC(N)=O)C(N)=O)[C@@H](C)CC)[C@@H](C)CC)[C@@H](C)O)[C@@H](C)O)C(C)C)C(C)C [Melittin, reference compound]
- MIC ([1]; MRSA 103, twofold serial dilutions 0.125–64 μM, 96-well plates, 37°C, 18 hours, minimum of three times in sets of three): 4 µM (≈ 11.4 µg/mL)
- MIC ([2]; MRSA 544, twofold serial dilutions 0.125–64 μM, 96-well plates, 37°C, 18 hours, minimum of three times in sets of three): 4 µM (≈ 11.4 µg/mL)
- MIC [5, 10]: 4 µM (≈ 11.4 µg/mL)
- MBC as multiple of MIC ([3]; MRSA 103): 2 × MIC
- MBC ([3]; MRSA 103, BHI agar plates, 24 hours at 37°C, minimum concentration at which 99.9% killed): 8 µM (≈ 22.8 µg/mL)
- MBC ([4]; MRSA 544, BHI agar plates, 24 hours at 37°C, minimum concentration at which 99.9% killed): 4 µM (≈ 11.4 µg/mL)

SMILES: N=C(N)NCCC[C@H](NC(=O)CNC(=O)[C@H](CO)NC(=O)CNC(=O)[C@H](CCCNC(=N)N)NC(=O)[C@H](CCCNC(=N)N)NC(=O)[C@H](CCCNC(=N)N)NC(=O)[C@H](Cc1c[nH]c2ccccc12)NC(=O)[C@H](Cc1c[nH]c2ccccc12)NC(=O)[C@@H](N)Cc1c[nH]c2ccccc12)C(=O)N[C@@H](CCCNC(=N)N)C(=O)N[C@@H](CCCNC(=N)N)C(=O)N[C@@H](Cc1c[nH]c2ccccc12)C(=O)N[C@@H](Cc1c[nH]c2ccccc12)C(=O)N[C@@H](Cc1c[nH]c2ccccc12)C(N)=O [W5] (H-WWWRRRGSGRRRWWW-NH2)
- MIC ([1]; 103, 18 h): 8 µM (≈ 18.2 µg/mL)
- MIC ([2]; 544, 18 h): 8 µM (≈ 18.2 µg/mL)
- MIC [6]: 2 µM (≈ 4.55 µg/mL)
- HE staining of liver and kidney [7]: no hepatotoxicity or nephrotoxicity
- MBC [8]: 8 µM (≈ 18.2 µg/mL)
- MIC [5, 10]: 8 µM (≈ 18.2 µg/mL)
- MBC ([3]; 103, 24 h): 8 µM (≈ 18.2 µg/mL)
- MBC ([4]; 544, 24 h): 8 µM (≈ 18.2 µg/mL)

SMILES: N=C(N)NCCC[C@H](NC(=O)CNC(=O)[C@H](CO)NC(=O)CNC(=O)[C@H](CCCNC(=N)N)NC(=O)[C@H](CCCNC(=N)N)NC(=O)[C@H](CCCNC(=N)N)NC(=O)[C@H](Cc1c[nH]c2ccccc12)NC(=O)[C@@H](N)Cc1c[nH]c2ccccc12)C(=O)N[C@@H](CCCNC(=N)N)C(=O)N[C@@H](CCCNC(=N)N)C(=O)N[C@@H](Cc1c[nH]c2ccccc12)C(=O)N[C@@H](Cc1c[nH]c2ccccc12)C(N)=O [W4] (H-WWRRRGSGRRRWW-NH2)
- MIC ([1]; 103, 18 h): 16 µM (≈ 30.4 µg/mL)
- MIC ([2]; 544, 18 h): 16 µM (≈ 30.4 µg/mL)
- MBC ([3]; 103, 24 h): 32 µM (≈ 60.8 µg/mL)
- MBC ([4]; 544, 24 h): 32 µM (≈ 60.8 µg/mL)

SMILES: CN[C@H](CC(C)C)C(=O)N[C@H]1C(=O)N[C@@H](CC(N)=O)C(=O)N[C@H]2C(=O)N[C@H]3C(=O)N[C@H](C(=O)N[C@H](C(=O)O)c4cc(O)cc(O)c4-c4cc3ccc4O)[C@H](O)c3ccc(c(Cl)c3)Oc3cc2cc(c3O[C@@H]2O[C@H](CO)[C@@H](O)[C@H](O)[C@H]2O[C@H]2C[C@](C)(N)[C@H](O)[C@H](C)O2)Oc2ccc(cc2Cl)[C@H]1O [Vancomycin, reference compound]
- MIC [1, 11]: 0.5 µM (≈ 0.725 µg/mL)
- MIC [2, 11]: 0.5 µM (≈ 0.725 µg/mL)
- Bactericidal effect in time-kill assay [9]: no signs of complete eradication even after 7 hours
- MIC [5, 11]: 0.5 µM (≈ 0.725 µg/mL)
- MBC as multiple of MIC ([3]; MRSA 103): 8 × MIC
- MBC [3, 12]: 4 µM (≈ 5.8 µg/mL)
- MBC as multiple of MIC ([4]; MRSA 544): 8 × MIC
- MBC [4, 12]: 4 µM (≈ 5.8 µg/mL)

SMILES: N=C(N)NCCC[C@H](NC(=O)CNC(=O)[C@H](CO)NC(=O)CNC(=O)[C@H](CCCNC(=N)N)NC(=O)[C@@H](N)Cc1c[nH]c2ccccc12)C(=O)N[C@@H](Cc1c[nH]c2ccccc12)C(N)=O [W1] (H-WRGSGRW-NH2)
- MIC ([1]; 103, 18 h): > 64 µM
- MIC ([2]; 544, 18 h): > 64 µM
- MBC ([3]; 103, 24 h): > 64 µM
- MBC ([4]; 544, 24 h): > 64 µM

— publication PMC11537005, “Antimicrobial activity of novel symmetrical antimicrobial peptides centered on a hydrophilic motif against resistant clinical isolates: in vitro and in vivo analyses” (Microbiology Spectrum, 2024)
